`CCOC(=O)c1cccc(SCCCN2CCC(n3c(CC)cc4cc(F)ccc43)CC2)c1` [Example 36, 3-{3-[4-(2-Ethyl-5-fluoro-indol-1-yl)-piperidin-1-yl]propylsulfanyl}-benzoic acid ethyl ester] gave a melting point of 179 to 181 °C.
